# Data from patent US11059886B1, “Methods and compositions for treating inflammatory or autoimmune diseases or conditions using GRM8 activators” (Flagship Pioneering Innovations V, Inc., priority 2018, dated 2021).
# Tested on: M2-like macrophages
# Assay: IL-8 secretion by M-CSF-differentiated human monocyte-derived M2-like macrophages (LEGENDplex bead-based immunoassay of supernatant)
# Assay type: cell-based
# Conditions: M2-like macrophages from human CD14+ monocytes
# Experimental: CD14+ monocytes were isolated from human PBMCs using negative magnetic bead selection (Stemcell Technologies) on day 0. Cells were cultured with M-CSF to differentiate monocytes to macrophages. On day 6, cells were treated with L-AP4 (selective group III metabotropic glutamate receptor agonist) (Sigma-Aldrich), at concentrations 1 μM and 10 μM overnight. Supernatant was collected and LEGENDplex™ bead-based immunoassays (Biolegend) were performed to detect for changes in cytokines secreted.
# Secretion of the inflammatory cytokine, IL-8, was decreased with the addition of the mGluR8 agonist in M2-like macrophages, consistent across multiple donors, as shown in Table 15 below.
structure (smiles),measurement,setting,value
NC(CCP(=O)(O)O)C(=O)O [L-AP4],Fold change of IL-8 (Normalized to M2-like Macs + LPS with no compound treatment),L-AP4 1 μM overnight,0.646 fold change
same,Fold change of IL-8 (Normalized to M2-like Macs + LPS with no compound treatment),L-AP4 10 μM overnight,0.866 fold change
